Test results taken from patent publication US10813914B2, “Composition for controlling microsporidia in fishes and method for controlling microsporidia in fishes using same” (MARUHA NICHIRO CORPORATION, priority 2016, dated 2020).
Marks after values point to notes of the source that are not given here.

Legend:
[1] = test system: microsporidian cyst (beko cyst), beko disease; assay: Prevention test using albendazole (3), 16 weeks administration (1-5); type: in vivo, “Mojako” (yellowtail larva); parameters: Negative: unit not given here
Method: Administration of albendazole was continued for 16 weeks and a sampling test was performed at 2 weeks, 4 weeks, 6 weeks, 8 weeks, 12 weeks and 16 weeks after the start of administration in the same procedure as in the above-described 1-3. The sampling test was carried out in the same procedure also at 4 weeks after the termination of administration of albendazole (20 weeks after the start of administration).

microsporidia = details: culture test, Non-Patent Documents 3 to 7; cited from earlier work
beko cyst, beko disease = assay: Treatment test of Mojako infected with beko disease using albendazole (2-1); type: in vivo, “Mojako” (yellowtail larva); details: 50 mg/kg Bw oral, 6 times/week
Method: 2-1: Test by Treating “Mojako” Infected with Beko Disease Using Albendazole
A treatment test was carried out according to the following procedure.
Test number: Live 1000 fishes (test samples showing apparent infection with beko disease according to visual test at the time of vaccine inoculation were selected and tested)
(§1) Administration method: oral administration (feed together with spreading agent)
(§2) Drug used: albendazole (compound represented by the above-described formula (3))
Administration amount: 50 mg/kg Bw (50 mg per kg of fish body weight)
(§3) Administration interval: 6 times/week
Samples of “Mojako” showing irregularities on the body surface with certainty of beko infection in visual test at the time of vaccine inoculation were selected and divided randomly into the control group and the test group.

[2] = test system: microsporidian cyst (beko cyst), beko disease; assay: Prevention test using albendazole (4), two administration methods (1-6); type: in vivo, “Mojako” (yellowtail larva)
Method: A preliminary test was conducted using two administration methods including different administration amounts of albendazole per one operation and different administration intervals. The preliminary test was performed according to the following procedure:
(§4) Test number: Live 1000 fishes (each initial body weight: 7 g)
as §1, §2
Test group 1: 20 mg/kg Bw (20 mg per kg of fish body weight)
Test group 2: 40 mg/kg Bw (40 mg per kg of fish body weight)
Test group 1: 6 times/week (administered for 16 weeks)
Test group 2: 2 times/2 week (administered for 16 weeks)
A sampling test was carried out according to the same procedure as in the above-described 1-5.

[3] = test system: microsporidian cyst (beko cyst), beko disease; assay: Prevention test using albendazole (2), reduced dose (1-4); type: in vivo, “Mojako” (yellowtail larva); details: out of 100 fishes at 8 weeks after the start of administration
Method: Albendazole administration and a sampling test were carried out in the same procedure as in the above-described 1-3 except that the administration amount of albendazole was reduced to 5 or 10 mg/kg Bw. In the 10 mg/kg administration group, the number of (positive) individuals showing generation of the beko cyst was 0 out of 100 fishes of “Mojako” at 8 weeks after the start of administration. When the administration amount of albendazole was reduced to 5 mg/kg Bw, generation of the beko cyst was confirmed in 3 out of 100 fishes of “Mojako” at 8 weeks after the start of administration.

[4] = Weight, deaths and food intake of Mojako in prevention test 1-3; type: in vivo, “Mojako” (yellowtail larva); parameters: Weight of Mojako: unit: g; details: 20 mg/kg Bw oral, 6 times/week
Method: (§5) A preliminary test was carried out according to the following procedure:
as §4
(§6) Administration amount: 20 mg/kg Bw (20 mg per kg of fish body weight)
as §3

[5] = test system: microsporidian cyst (beko cyst), beko disease; assay: Prevention test using albendazole (1) (1-3); type: in vivo, “Mojako” (yellowtail larva); details: 20 mg/kg Bw oral, 6 times/week
Method: 1-3. Prevention Test Using Albendazole (1)
as §5, §4, §1, §2, §6, §3
A sampling test was carried out according to the following procedure:
Every two weeks from the start of administration, each 20 fishes of “Mojako” were taken out from each test group (100 fishes of “Mojako” at 8 weeks after the start of administration) and each fish was cut into three pieces. It was then visually tested whether the microsporidian cyst (beko cyst) was found in the pieces. When the beko cyst was observed, it was judged as positive and the test results were accumulated. Regarding the beko cyst that could be confirmed with the naked eye, the number was confirmed and the average infection number per one fish was determined.

[6] = test system: microsporidian cyst (beko cyst), beko disease; assay: Prevention test using albendazole (5) in Kanpachi (1-7); type: in vivo, “Kanpachi” (great amberjack); details: 40 mg/kg Bw oral, 6 times/week
Method: A prevention test against the beko disease by administering albendazole was carried out using “Kanpachi” instead of “Mojako”.
A preliminary test was performed according to the following procedure:
Test number: Live 1000 fishes (each initial body weight: 50 g)
as §1, §2
Administration amount: 40 mg/kg Bw (40 mg per kg of fish body weight)
as §3
Sampling test procedure: same as in the above-described 1-1

[7] = 20 mg/kg Bw oral, 6 times/week, 2 Weeks
[8] = 20 mg/kg Bw oral, 6 times/week, 4 Weeks
[9] = 20 mg/kg Bw oral, 6 times/week, 6 Weeks
[10] = 20 mg/kg Bw oral, 6 times/week, 8 Weeks
[11] = 20 mg/kg Bw oral, 6 times/week, 12 Weeks
[12] = 20 mg/kg Bw oral, 6 times/week, 16 Weeks
[13] = 20 Weeks after start = 4 weeks after termination of 16-week administration

Molecule `CCCSc1ccc2nc(NC(=O)OC)[nH]c2c1` [Albendazole, albendazole] has an Infection rate [1, 7] of 0%, a Negative [1, 7] of 20 and a Positive [1, 7] of 0. The Infection rate [1, 8] was 0%, the Negative [1, 8] was 20 and the Positive [1, 8] was 0. The Negative [1, 9] was 20, the Positive [1, 9] was 0 and the Infection rate ([1]; 20 mg/kg Bw oral, 6 times/week, 6 weeks, p < 0.05) was 0%*. It also gave a Negative [1, 10] of 100, a Positive [1, 10] of 0 and an Infection rate ([1]; 20 mg/kg Bw oral, 6 times/week, 8 weeks, p < 0.01) of 0%**. For the same molecule, the Negative [1, 11] was 40, the Positive [1, 11] was 0 and the Infection rate ([1]; 20 mg/kg Bw oral, 6 times/week, 12 Weeks, p < 0.01) was 0%**. It also gave a Negative [1, 12] of 46, a Positive [1, 12] of 0 and an Infection rate ([1]; 20 mg/kg Bw oral, 6 times/week, 16 Weeks, p < 0.01) of 0%**. The Negative [1, 13] was 30, the Positive [1, 13] was 0 and the Infection rate ([1]; 20 Weeks after start = 4 weeks after termination of 16-week administration, p < 0.01) was 0%**. It also gave a Negative ([1]; Total until 16 weeks) of 246, a Positive ([1]; Total until 16 weeks) of 0 and an Infection rate ([1]; Total until 16 weeks, p < 0.01) of 0%**. The “Time the effect of preventing infection with microsporidia continues after administration was terminated” value ([1]; after 16 weeks of 20 mg/kg Bw oral, 6 times/week) was “at least 4 weeks”, the “Antimicrobial activity against microsporidia” value (microsporidia) was “high antimicrobial activity” and the Infection rate (beko cyst, beko disease; 10 Days) was 60%. The “Number of positive fishes” value (beko cyst, beko disease; 10 Days, 10 samples) was 6, the “Number of positive fishes” value (beko cyst, beko disease; 21 Days, 63 samples) was 28 and the Infection rate (beko cyst, beko disease; 21 Days, p < 0.01, 50 mg/kg) was 44.4%**. For the same molecule, the Infection rate (beko cyst, beko disease; 21 Days, p < 0.01, listed as albendazole, 50 mg/kg) was 44.4%, the Infection rate (beko cyst, beko disease; at administration start time) was 100% and the “Number of positive fishes” value (beko cyst, beko disease; at administration start time, 10 samples) was 10. For the same molecule, the “Positive fishes (beko cyst) / fishes sampled” value ([2]; Test group 1: 20 mg/kg Bw, 6 times/week for 16 weeks, 8 Weeks, p < 0.001) was 0/50***, the “Positive fishes (beko cyst) / fishes sampled” value ([2]; Test group 1: 20 mg/kg Bw, 6 times/week for 16 weeks, 16 Weeks, p < 0.0001) was 0/70**** and the “Positive fishes (beko cyst) / fishes sampled” value ([2]; Test group 1: 20 mg/kg Bw, 6 times/week for 16 weeks, 24 Weeks (8 weeks after termination), 20 mg/kg) was 16/50. For the same molecule, the “Positive fishes (beko cyst) / fishes sampled” value ([2]; Test group 1: 20 mg/kg Bw, 6 times/week for 16 weeks, 24 Weeks (8 weeks after termination), listed as albendazole, 20 mg/kg) was “did not continue until 8 weeks after termination of administration”, the “Positive fishes (beko cyst) / fishes sampled” value ([2]; Test group 1: 20 mg/kg Bw, 6 times/week for 16 weeks, at administration start time) was 0/20 and the “Positive fishes (beko cyst) / fishes sampled” value ([2]; Test group 2: 40 mg/kg Bw, 2 times/2 week for 16 weeks, 8 Weeks, p < 0.001) was 0/50***. For the same molecule, the “Positive fishes (beko cyst) / fishes sampled” value ([2]; Test group 2: 40 mg/kg Bw, 2 times/2 week for 16 weeks, 16 Weeks, p < 0.0001) was 0/70****, the “Positive fishes (beko cyst) / fishes sampled” value ([2]; Test group 2: 40 mg/kg Bw, 2 times/2 week for 16 weeks, 24 Weeks (8 weeks after termination), p < 0.0001, 40 mg/kg) was 1/50**** and the “Positive fishes (beko cyst) / fishes sampled” value ([2]; Test group 2: 40 mg/kg Bw, 2 times/2 week for 16 weeks, 24 Weeks (8 weeks after termination), p < 0.0001, listed as albendazole, 40 mg/kg) was “significant suppression of generation of the beko cyst”. The “Positive fishes (beko cyst) / fishes sampled” value ([2]; Test group 2: 40 mg/kg Bw, 2 times/2 week for 16 weeks, at administration start time) was 0/20, the “Number of (positive) individuals showing generation of the beko cyst” value ([3]; 5 mg/kg Bw oral) was 3 and the “Number of (positive) individuals showing generation of the beko cyst” value ([3]; 10 mg/kg Bw oral) was 0. For the same molecule, the “Increase in the number of deaths and decline in food intake with respect to the control group” value ([4]; administration period) was “not recognized”, the “Weight of Mojako” value ([4]; 0 week) was 7 ± 0.53 and the “Weight of Mojako” value ([4]; 2 Weeks) was 18 ± 2.38. The “Weight of Mojako” value ([4]; 4 Weeks) was 29 ± 4.16, the “Weight of Mojako” value ([4]; 6 Weeks) was 51 ± 7.13 and the “Body weight compared with the control group” value ([4]; 8 Weeks) was “significant increase in body weight”. The “Influence on the growth of Mojako” value ([4]; 8 Weeks) was “does not exert a harmful influence on the growth”, the “Weight of Mojako” value ([4]; 8 Weeks) was 73 ± 12.6 and the “Positive fishes (beko cyst) / fishes sampled” value ([5]; 2 week) was 0/20. For the same molecule, the “Positive fishes (beko cyst) / fishes sampled” value ([5]; 4 Weeks) was 0/20, the “Positive fishes (beko cyst) / fishes sampled” value ([5]; 6 weeks, p < 0.05) was 0/20* and the “Positive fishes (beko cyst) / fishes sampled” value ([5]; 8 weeks, p < 0.01) was 0/100**. For the same molecule, the “Positive fishes (beko cyst) / fishes sampled” value ([5]; Total of 2-8 weeks, p < 0.01) was 0/160**, the “Positive fishes (beko cyst) / fishes sampled” value ([5]; Total of 2-8 weeks, p < 0.01, listed as albendazole) was “no positive was found” and the “Positive fishes (beko cyst) / fishes sampled” value ([6]; 8 Weeks, p < 0.01, 40 mg/kg) was 1/50**. For the same molecule, the “Positive fishes (beko cyst) / fishes sampled” value ([6]; 8 Weeks, p < 0.01, listed as albendazole, 40 mg/kg) was “significantly suppressed generation of the beko cyst” and the “Positive fishes (beko cyst) / fishes sampled” value ([6]; at administration start time) was 1/20.
